Results from patent US4562275A, “Antitumor platinum complexes” (priority 1984, dated 1985).
“And” between values parts separate entries of the source, which are not always exact repeats. Equal values may be shown once.

What was measured:
[1] = tested on: L1210/CDDP (cisplatin resistant line of L1210 leukemia); assay: Antitumor activity vs cisplatin-resistant L1210 leukemia (L1210/CDDP) in mice; format: in vivo, mouse; details: for Cures/total / O.D. (optimal dose): Day 1; for Max % T/C: Day 1, dying mice only
Source text: Results of antitumor testing against the transplantable mouse tumors L1210 leukemia, cisplatin-resistant L1210 leukemia, B16 melanoma, Madison 109 lung carcinoma and colon 26 carcinoma are shown below in Tables 1 and 2. […]
(§1) The methods used to evaluate the platinum complexes for antitumor activity and toxicity in animals are summarized below. These methods have been published elsewhere in more detail (Rose, et al. Cancer Treat. Rep. 66: 135, 1982; Florczyk, et al, Cancer Treat. Rep. 66: 187, 1982).
(§2) The parent line of L1210 leukemia (L1210) was maintained in DBA/2 mice by ip transplantation of 10^5 cells at weekly intervals. […] B16 malenoma (B16) was maintained by sc transplant in C57BL/6 mice every two weeks. Madison 109 lung carcinoma (M109) and colon 26 carcinoma (C26) were maintained by sc transplant in BALB/c mice every two weeks.
(§3) The level and route of tumor inoculum, host, group size, and drug treatment schedule and route for each tumor type are summarized below in Table 6. Each complex was evaluated initially against L1210 at 4 dose levels per schedule selected on the basis of lethality data provided by the Wadley Institute. In subsequent experiments with the other tumors the complexes were evaluated at a minimum of 3 dose levels selected on the basis of maximum tolerated levels in the L1210 experiments. Cisplatin-treated groups and a saline-treated (or untreated) tumor control group were included in each experiment.
(§4) The L1210 experiments were terminated on Day 30 whereas the B16, C26 and M109 experiments were terminated on Day 60 (some C26 experiments were terminated on Day 75). Mice alive at the termination day were autopsied and considered cured if no tumor was visible. […] A complex was considered active if it produced a % T/C value ≥125.

[2] = tested on: L1210 leukemia; assay: Antitumor activity vs transplantable L1210 leukemia (ip) in mice; format: in vivo, mouse; details: for Max % T/C: dying mice only; for OD (optimum dose): optimum dose from the L1210 test
Source text: The antitumor activities of the complexes provided by the present invention have been determined against L-1210 leukemia in the mouse and, for certain of the complexes, against other mouse tumor systems.
(§5) Results of antitumor testing against the transplantable mouse tumors L1210 leukemia, cisplatin-resistant L1210 leukemia, B16 melanoma, Madison 109 lung carcinoma and colon 26 carcinoma are shown below in Tables 1 and 2.
In Table 1 are shown the maximum % T/C values obtained for each platinum compound versus L1210 leukemia using both single and qd 1→5 dosing.
as §1, §2, §3, §4

[3] = tested on: ferret; assay: Emetic effects (and lethality) in the ferret; format: in vivo, castrated male Fitch ferrets; details: for No. With Emesis/No. tested: 6 h observation
Description: Selected complexes were evaluated for emetic effects in ferrets. […] The time to the first emetic episode (retching and expulsion of vomitus) and the number of episodes were recorded. […] Subsequent test doses were selected based on the emetic response and lethality of the initial dose.

[4] = tested on: BDF1 mice; assay: Nephrotoxicity: effect on blood urea nitrogen (BUN) in BDF1 mice; details: for BUN↑, Mouse: effect relative to cisplatin
Description: The other compounds were in such short supply that they were tested for effects on BUN values using the optimum dose (O.D.) from the L1210 test for dose selection.
The toxicity studies were done in male BDF1 mice (25-29 gm) and castrated male Fitch ferrets (1-1.5 kg).
The complexes that were active against L1210 were evaluated for nephrotoxicity by determining their effects on blood urea nitrogen (BUN) levels in mice. Groups of 40-50 mice/experiment were bled from the retro-orbital plexus and individual BUN values determined by a modified urease method using a Centrifichem System 400. The test complex, or saline for controls, was given at several dose levels (5-10 mice/dose) in single ip injections. The highest dose of the complex usually corresponded to its LD50 value or 1.5 times its optimal single dose in the L1210 experiment. At least two lower doses were included to evaluate dose-related effects. The BUN values were measured 4 and 7 days after dosing. BUN values ≥30 mg% were considered indicative of drug-induced nephrotoxicity.

[5] = tested on: M109 carcinoma; assay: Antitumor activity vs ip M109 (Madison 109 lung) carcinoma in mice; format: in vivo, mouse; design: O.D.: unit not given here; details: for O.D.: ip M109 (2×; 4×); for Max. % T/C: ip M109 (2×; 4×): q3d × 2 or qd 1-4, ip, dying mice only
Source text: as §5, §1, §2, §3, §4
8 q3d^a × 2 or qd 1-4, ip

[6] = tested on: BDF1 mice; assay: Deaths (D.14) in the BUN test in BDF1 mice; format: in vivo, mouse
[7] = tested on: B16 melanoma; assay: Antitumor activity vs ip B16 melanoma in mice; format: in vivo, mouse; design: O.D.: unit not given here; details: for O.D.: ip B16 (3×; 9×); for Max. % T/C: ip B16 (3×; 9×): q4d × 3 or qd 1-9, ip, dying mice only
Source text: as §1, §2
The level and route of tumor inoculum, host, group size, and drug treatment schedule and route for each tumor type are summarized below in Table 6. Each complex was evaluated initially against L1210 at 4 dose levels per schedule selected on the basis of lethality data provided by the Wadley Institute.
as §4

[8] = tested on: C26 carcinoma; assay: Antitumor activity vs ip C26 (colon 26) carcinoma in mice; format: in vivo, mouse; design: O.D.: unit not given here; details: for O.D.: ip C26 (2×; 4×); for Max. % T/C: ip C26 (2×; 4×): q3d × 2 or qd 1-4, ip, dying mice only
Source text: as §5, §1, §2, §3, §4
8 q3d^b × 2 or qd 1-4, ip

[9] = Solubility stated in the preparation examples
[10] = L1210, single dose Day 1, ip, (a), (b) determinations
[11] = L1210, single dose Day 1, ip, dose giving the Max % T/C, same order

Row | Structure (SMILES) | Cures/total [1] | O.D. (optimal dose) [1] [mg/kg/inj] | Max % T/C [1] [%] | O.D. (optimal dose) ([2]; L1210, QD 1 → 5, ip) | Max % T/C ([2]; L1210, QD 1 → 5, ip) | Max % T/C [2, 10] | O.D. (optimal dose) [2, 11] | OD (optimum dose) [2] [mg/kg/ip] | BUN↑, Mouse [4] | O.D. [5] | Max. % T/C [5] [%] | O.D. [7] | Max. % T/C [7] [%] | O.D. [8] | Max. % T/C [8] [%] | other results
1 | N[C@@H]1CCCC[C@H]1N.O=C([O-])CC(=O)C(=O)[O-].[Pt+2] (relative stereo) [Example 2, oxaloacetato trans(-)-1,2-diaminocyclohexane platinum(II)] | 4/6 | 24 | 194 | 7.5 mg/kg/inj | 243% | 214% and 217% | 30 mg/kg/inj and 40 mg/kg/inj | 30 | 0 | 12 | 156 | 2 | 150 | 10 | 143 | Emesis Episodes ([3]; 16 mg/kg iv): 3; Emesis onset in responding animals ([3]; 16 mg/kg iv): 41 min; No. With Emesis/No. tested ([3]; 16 mg/kg iv): 1/1; Incidence of BUN > 30 mg % ([4]; 30 mg/kg ip): 0/5; Incidence of BUN > 30 mg % ([4]; 45 mg/kg ip): 0/4; Deaths D.14 ([6]; 30 mg/kg ip): 0/5; Deaths D.14 ([6]; 45 mg/kg ip): 1/5
2 | CC(=O)CC(=O)[O-].CC(=O)CC(=O)[O-].N[C@@H]1CCCC[C@H]1N.[Pt+2] (relative stereo) [Example 4, bis(acetoacetato) trans(-)-1,2-diaminocyclohexane platinum(II)] |  | 12 | 163 | 5 mg/kg/inj | 214% | 200% and 207% | 20 mg/kg/inj and 18 mg/kg/inj | 20 | 0 | 8 | 119 | 1 | 150 | 5 | 120 | Cures/total ([2]; L1210, QD 1 → 5, ip): 1/6; Incidence of BUN > 30 mg % ([4]; 20 mg/kg ip): 0/5; Incidence of BUN > 30 mg % ([4]; 30 mg/kg ip): 0/5; Deaths D.14 ([6]; 20 mg/kg ip): 0/5; Deaths D.14 ([6]; 30 mg/kg ip): 0/5
3 | N[C@@H]1CCCC[C@H]1N.[O]=[Cr](=[O])([O-])[O-].[Pt+2] (relative stereo) [Example 9, chromato trans(-)-1,2-diaminocyclohexane platinum(II)] |  |  |  | 6 mg/kg/inj and 12 mg/kg/inj | 143% and 214% | 150% and 200% | 24 mg/kg/inj and 48 mg/kg/inj | 48 | 0 | 20 | 119 | 6 | 172 | 24 | 106 | Incidence of BUN > 30 mg % ([4]; 48 mg/kg ip): 0/5; Incidence of BUN > 30 mg % ([4]; 72 mg/kg ip): 0/5; Deaths D.14 ([6]; 48 mg/kg ip): 0/5; Deaths D.14 ([6]; 72 mg/kg ip): 0/5
4 | N[C@@H]1CCCC[C@H]1N.O=C([O-])CCC(=O)C(=O)[O-].[Pt+2] (relative stereo) [Example 14, 2-ketoglutarato trans(-)-1,2-diaminocyclohexane platinum(II)] | 2/6 | 12 | 169 | 16 mg/kg/inj | 250% | 214% and 193% | 16 mg/kg/inj |  |  |  |  | 3 | 135 |  |  | 
5 | N[C@@H]1CCCC[C@H]1N.[O-]B([O-])O.[Pt+2] [Example 1, borato trans(-)-1,2-diaminocyclohexane platinum(II)] | 2/6 | 8 | 188 | 2 mg/kg/inj | 243% | 214% and 242% | 16 mg/kg/inj and 8 mg/kg/inj | 16 | 0 | 2 | 147 | 1 | 150 | 5 | 134 | Incidence of BUN > 30 mg % ([4]; 16 mg/kg ip): 0/5; Incidence of BUN > 30 mg % ([4]; 24 mg/kg ip): 0/3; Deaths D.14 ([6]; 16 mg/kg ip): 0/5; Deaths D.14 ([6]; 24 mg/kg ip): 3/5
6 | Cc1cn(C2CC(O)C(COP(=O)([O-])[O-])O2)c(=O)[nH]c1=O.NC1CCCCC1N.[Pt+2] (stereo not drawn) [Example 6, thymidylato trans(-)-1,2-diaminocyclohexane platinum(II)] |  | 20 | 175 | 10 mg/kg/inj | 221% | 200% and 207% | 40 mg/kg/inj and 45 mg/kg/inj | 40 | 0 | 12 | 95 | 6 | 177 | 36 | 109 | Emesis Episodes ([3]; 32 mg/kg iv): 13.5; Emesis onset in responding animals ([3]; 32 mg/kg iv): 17.5 min; No. With Emesis/No. tested ([3]; 32 mg/kg iv (lethal dose)): 2/2; Lethal dose ([3]; ferret, doses marked * = Lethal dose): 32 mg/kg iv; Incidence of BUN > 30 mg % ([4]; 40 mg/kg ip): 0/5; Incidence of BUN > 30 mg % ([4]; 60 mg/kg ip): 0/5; Deaths D.14 ([6]; 40 mg/kg ip): 0/5; Deaths D.14 ([6]; 60 mg/kg ip): 0/5
7 | NCC1(N)CCCCCCC1.[O-]B([O-])O.[Pt+2] [Example 13, borato 1-aminomethylcyclooctylamine platinum(II)] | 2/6 | 8 | 256 | 4 mg/kg/inj | 207% | 229% and 207% | 16 mg/kg/inj | 16 | 0 | 3 | 81 | 2 | 167 | 8 | 88 | Incidence of BUN > 30 mg % ([4]; 16 mg/kg ip): 0/5; Incidence of BUN > 30 mg % ([4]; 24 mg/kg ip): 0/5; Ratio of Max. % T/C Complex/cDDP ([5]; ip M109, relative to concomitant cisplatin): .52; Deaths D.14 ([6]; 16 mg/kg ip): 0/5; Deaths D.14 ([6]; 24 mg/kg ip): 0/5; Ratio of Max. % T/C Complex/cDDP ([7]; ip B16, relative to concomitant cisplatin): .90; Ratio of Max. % T/C Complex/cDDP ([8]; ip C26, relative to concomitant cisplatin): .61; Solubility in methanol ([9]; methanol): soluble; Solubility in water ([9]; water): soluble
